Data from publication PMC6695839, “Interspecies Variation in NCMN-O-Demethylation in Liver Microsomes from Various Species” (Molecules, 2019).
Each block holds one molecule with its values, some of them ahead of it.

Legend:
[1] = test system: CYP1A in rat liver microsomes (RLM); assay: Inhibition of NCMN-O-demethylation by CYP inhibitors in rat liver microsomes; details: RLM; 10 µM NCMN; 100 µM furafylline, 10 µM sulfaphenazole, 200 µM troleandomycin, 500 µM 1-ABT
[2] = test system: CYP1A (NCMN O-demethylation); assay: as above; details: rat, rat liver microsomes, pH 7.4, probe NCMN (various concentrations; formation of NCHN)
[3] = test system: CYP1A in cynomolgus monkey liver microsomes (CyLM); assay: Inhibition of NCMN-O-demethylation by CYP inhibitors in cynomolgus monkey liver microsomes; details: CyLM; 10 µM NCMN; 100 µM furafylline, 10 µM sulfaphenazole, 200 µM troleandomycin, 500 µM 1-ABT
[4] = test system: CYP1A (NCMN O-demethylation); assay: as above; details: cynomolgus monkey, cynomolgus monkey liver microsomes, pH 7.4, probe NCMN (various concentrations; formation of NCHN)
[5] = target: T1, CYP1A (NCMN O-demethylation) (Mus musculus, UniProt P00186); assay: Inhibition of NCMN-O-demethylation by CYP inhibitors in mouse liver microsomes; details: mouse, pH 7.4
T1 sequence (P00186 2-513): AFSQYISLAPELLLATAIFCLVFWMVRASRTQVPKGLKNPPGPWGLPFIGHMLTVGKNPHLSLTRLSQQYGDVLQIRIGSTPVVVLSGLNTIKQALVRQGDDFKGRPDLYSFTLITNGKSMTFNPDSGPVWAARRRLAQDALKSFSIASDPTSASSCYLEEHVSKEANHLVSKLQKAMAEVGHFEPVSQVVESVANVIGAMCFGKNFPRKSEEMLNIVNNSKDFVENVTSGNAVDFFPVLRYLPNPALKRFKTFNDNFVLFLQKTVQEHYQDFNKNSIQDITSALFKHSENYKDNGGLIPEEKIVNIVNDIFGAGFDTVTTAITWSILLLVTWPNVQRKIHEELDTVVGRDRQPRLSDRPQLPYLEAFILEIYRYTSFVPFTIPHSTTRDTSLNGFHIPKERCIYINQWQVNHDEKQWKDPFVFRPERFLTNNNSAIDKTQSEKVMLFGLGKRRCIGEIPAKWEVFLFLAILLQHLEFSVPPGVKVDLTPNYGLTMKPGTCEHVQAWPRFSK

[6] = target: T2, CYP1A in mouse liver microsomes (MLM) (Mus musculus, UniProt P00186); assay: as above; details: MLM; 10 µM NCMN; 100 µM furafylline, 10 µM sulfaphenazole, 200 µM troleandomycin, 500 µM 1-ABT
T2 sequence (P00186 2-513): T1 sequence (P00186 2-513)

[7] = test system: CYP1A in minipig liver microsomes (PLM); assay: Inhibition of NCMN-O-demethylation by CYP inhibitors in minipig liver microsomes; details: PLM; 10 µM NCMN; 100 µM furafylline, 10 µM sulfaphenazole, 200 µM troleandomycin, 500 µM 1-ABT
[8] = test system: CYP1A (NCMN O-demethylation); assay: as above; details: minipig, pig, minipig liver microsomes, pH 7.4, probe NCMN (various concentrations; formation of NCHN)
[9] = target: T3, CYP1A (NCMN O-demethylation) (Canis lupus familiaris, UniProt P56592); assay: Inhibition of NCMN-O-demethylation by CYP inhibitors in beagle dog liver microsomes; details: beagle, dog, pH 7.4
T3 sequence (P56592 2-512): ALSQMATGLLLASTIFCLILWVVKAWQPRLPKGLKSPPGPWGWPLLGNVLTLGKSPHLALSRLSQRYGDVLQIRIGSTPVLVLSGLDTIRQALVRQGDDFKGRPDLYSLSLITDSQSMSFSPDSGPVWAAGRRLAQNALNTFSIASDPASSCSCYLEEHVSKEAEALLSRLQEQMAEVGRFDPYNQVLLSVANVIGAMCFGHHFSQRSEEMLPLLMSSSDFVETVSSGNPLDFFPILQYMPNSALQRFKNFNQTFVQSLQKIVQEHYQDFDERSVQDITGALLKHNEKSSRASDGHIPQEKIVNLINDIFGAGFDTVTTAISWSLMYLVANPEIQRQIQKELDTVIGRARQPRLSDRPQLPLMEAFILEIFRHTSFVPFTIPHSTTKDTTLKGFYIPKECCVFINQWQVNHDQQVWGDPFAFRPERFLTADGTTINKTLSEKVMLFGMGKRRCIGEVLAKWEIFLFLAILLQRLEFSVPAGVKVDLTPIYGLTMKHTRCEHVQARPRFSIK

[10] = target: T4, CYP1A in beagle dog liver microsomes (DLM) (Canis lupus familiaris, UniProt P56592); assay: as above; details: DLM; 10 µM NCMN; 100 µM furafylline, 10 µM sulfaphenazole, 200 µM troleandomycin, 500 µM 1-ABT
T4 sequence (P56592 2-512): T3 sequence (P56592 2-512)

[11] = target: T5, CYP1A in human liver microsomes (HLM) (Homo sapiens, UniProt P05177); assay: Inhibition of NCMN-O-demethylation by CYP inhibitors in human liver microsomes; details: 10 µM NCMN, 100 µM furafylline, 10 µM sulfaphenazole, 200 µM troleandomycin, 500 µM 1-ABT
T5 sequence (P05177 2-516): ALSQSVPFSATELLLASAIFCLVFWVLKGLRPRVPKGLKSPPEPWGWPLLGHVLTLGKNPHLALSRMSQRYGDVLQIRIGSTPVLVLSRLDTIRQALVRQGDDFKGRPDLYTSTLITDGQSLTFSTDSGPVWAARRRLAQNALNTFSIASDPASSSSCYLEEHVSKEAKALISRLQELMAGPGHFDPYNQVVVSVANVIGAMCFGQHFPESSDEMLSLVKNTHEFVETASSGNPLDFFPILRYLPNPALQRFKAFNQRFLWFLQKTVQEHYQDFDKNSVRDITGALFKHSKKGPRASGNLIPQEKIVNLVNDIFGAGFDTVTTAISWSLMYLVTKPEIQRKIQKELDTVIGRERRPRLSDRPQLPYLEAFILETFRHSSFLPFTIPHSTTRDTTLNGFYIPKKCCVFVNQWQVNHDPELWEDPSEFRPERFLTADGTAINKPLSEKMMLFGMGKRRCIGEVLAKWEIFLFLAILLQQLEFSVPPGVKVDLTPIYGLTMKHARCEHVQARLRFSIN

[12] = substrate: COc1ccc2c3c(cccc13)C(=O)N(CCCC(=O)O)C2=O; assay: Kinetic analysis of NCMN-O-demethylation in human CYP1A2; assay type: in vitro ADME; details: other: CYP1A2 (human); substrate 1-150 µM; pH 7.4; 37.0 °C
Procedure: (§1) The formation rates of NCHN were within the linear range of the protein concentration and incubation time. NCMN (1, 2.5, 5, 7.5, 10, 25, 50, 75, 100 and 150 µM) was incubated with HLM, MLM, RLM, DLM, PLM, CyLM (0.25mg protein/mL) as well as rat CYP1A2 (100 nM) for 30min. […] .

[13] = substrate: COc1ccc2c3c(cccc13)C(=O)N(CCCC(=O)O)C2=O; assay: Kinetic analysis of NCMN-O-demethylation in cDNA-expressed rat CYP1A2; assay type: in vitro ADME; details: other: CYP1A2 (Rat), 100 nM; Michaelis-Menten; substrate 1-150 µM; pH 7.4; 37.0 °C
Procedure: as §1

Molecule: Cc1nc2c([nH]1)c(=O)n(C)c(=O)n2Cc1ccco1 [furafylline]
Inhibition of the formation of NCHN [1]: near completely
Inhibition of the formation of NCHN [3]: lower inhibitory effects
IC50 [5]: 5.73 µM
Inhibition of the formation of NCHN [6]: near completely
Inhibition of the formation of NCHN [7]: lower inhibitory effects
IC50 [9]: 26.8 µM
Inhibition of the formation of NCHN [10]: lower inhibitory effects

Inhibition of the formation of NCHN [1]: potently inhibit
Inhibition of the formation of NCHN [3]: potently inhibit
Inhibition of the formation of NCHN [6]: potently inhibit
Inhibition of the formation of NCHN [7]: potently inhibit
Inhibition of the formation of NCHN [10]: potently inhibit
Molecule: Nn1nnc2ccccc21 [ABT, 1-Aminobenzotriazole]

Inhibition of the formation of NCHN [1]: less than 25%
Inhibition of the formation of NCHN [3]: less than 25%
Inhibition of the formation of NCHN [6]: less than 25%
Inhibition of the formation of NCHN [7]: less than 25%
Inhibition of the formation of NCHN [11]: less than 25%
Inhibition of the formation of NCHN [10]: less than 25%
Molecule: Nc1ccc(S(=O)(=O)Nc2ccnn2-c2ccccc2)cc1 [sulfaphenazole]

B1: CYP1A2 (human) (Homo sapiens) (protein)
chain: MALSQSVPFSATELLLASAIFCLVFWVLKGLRPRVPKGLKSPPEPWGWPLLGHVLTLGKNPHLALSRMSQRYGDVLQIRIGSTPVLVLSRLDTIRQALVRQGDDFKGRPDLYTSTLITDGQSLTFSTDSGPVWAARRRLAQNALNTFSIASDPASSSSCYLEEHVSKEAKALISRLQELMAGPGHFDPYNQVVVSVANVIGAMCFGQHFPESSDEMLSLVKNTHEFVETASSGNPLDFFPILRYLPNPALQRFKAFNQRFLWFLQKTVQEHYQDFDKNSVRDITGALFKHSKKGPRASGNLIPQEKIVNLVNDIFGAGFDTVTTAISWSLMYLVTKPEIQRKIQKELDTVIGRERRPRLSDRPQLPYLEAFILETFRHSSFLPFTIPHSTTRDTTLNGFYIPKKCCVFVNQWQVNHDPELWEDPSEFRPERFLTADGTAINKPLSEKMMLFGMGKRRCIGEVLAKWEIFLFLAILLQQLEFSVPPGVKVDLTPIYGLTMKHARCEHVQARLRFSIN
Km [12]: 9.80 ± 0.67 µM
kcat [12]: 32.06 ± 0.50 nmol/min/nmol CYP

B2: CYP1A2 (Rat) (Rattus norvegicus) (protein)
chain: MAFSQYISLAPELLLATAIFCLVFWVLRGTRTQVPKGLKSPPGPWGLPFIGHMLTLGKNPHLSLTKLSQQYGDVLQIRIGSTPVVVLSGLNTIKQALVKQGDDFKGRPDLYSFTLITNGKSMTFNPDSGPVWAARRRLAQDALKSFSIASDPTSVSSCYLEEHVSKEANHLISKFQKLMAEVGHFEPVNQVVESVANVIGAMCFGKNFPRKSEEMLNLVKSSKDFVENVTSGNAVDFFPVLRYLPNPALKRFKNFNDNFVLFLQKTVQEHYQDFNKNSIQDITGALFKHSENYKDNGGLIPQEKIVNIVNDIFGAGFETVTTAIFWSILLLVTEPKVQRKIHEELDTVIGRDRQPRLSDRPQLPYLEAFILEIYRYTSFVPFTIPHSTTRDTSLNGFHIPKECCIFINQWQVNHDEKQWKDPFVFRPERFLTNDNTAIDKTLSEKVMLFGLGKRRCIGEIPAKWEVFLFLAILLHQLEFTVPPGVKVDLTPSYGLTMKPRTCEHVQAWPRFSK
notes: purchased Research Institute for Liver Diseases (RILD, Shanghai, China) Lot.int066e1c
Km [13]: 4.04 ± 0.16 µM
kcat [13]: 7.48±0.05 nmol/min/nmol CYP
